{
  "source": "patent US6525001B1",
  "about": "“Substituted pyrimidine and pyridine herbicides” (Mid-American Commercialization Corporation, priority 1997, dated 2003)",
  "type_in_all_cases": "in vivo",
  "key": {"[1]": {"test_system": "barnyardgrass (Echinochloa crus-galli)", "assay": "Test C", "settings": "PREEMERGENCE"}, "[2]": {"test_system": "winter barley (Hordeum vulgare)", "assay": "Test D", "settings": "PREEMERGENCE"}, "[3]": {"test_system": "common ragweed (Ambrosia elatior)", "assay": "Test E pre-/postemergence/post directed", "set-up": "key: 0 is no effect; 100 is complete control", "settings": "PREEMERGENCE, Rate 125 g/ha", "source_text": "(§1) Seeds, tubers, or plant parts of alexandergrass (Brachiaria plantaginea), annual bluegrass (Poa annua), arrowleaf sida (Sida rhombifolia), barnyardgrass (Echinochloa crus-galli), bermudagrass (Cynodon dactylon), citrus (Citrus sinensis), common chickweed (Stellaria media), common purslane (Portulaca oleracea), common ragweed (Ambrosia elatior), common groundsel (Senecio vulgaris), dallisgrass (Paspalum dilatatum), goosegrass (Eleusine indica), green foxtail (Setaria viridis), guineagrass (Panicum maximum), itchgrass (Rottboellia exaltata), johnson grass (Sorghum halepense), kochia (Kochia scoparia), large crabgrass (Digitaria sanguinalis), leafy spurge (Euphorbia esula), pitted morningglory (Ipomoea lacunosa), purple nutsedge (Cyperus rotundus), quackgrass (Agropyron repens), Russian thistle (Salsola kali), sandbur (Cenchrus echinatus), sourgrass (Trichachne insularis), Spanishneedles (Bidens bipinnata), sugarcane (Saccharum officinarum), surinam grass (Brachiaria decumbens) and tall mallow (Malva sylvestris) were planted into greenhouse pots of flats containing greenhouse planting medium. Plant species were grown grown in separate pots or individual compartments. Preemergence applications were made within one day of planting the seed or plant part. Postemergence applications were applied when the plants were in the two to four leaf stage (three to twenty cm).\n(§2) Test chemicals were formulated in a non-phytotoxic solvent mixture which included a surfactant and applied preemergence to the soil surface, postemergence to the plants or as a post directed spray to plants and soil at the base of the target species. Untreated control plants and treated plants were placed in the greenhouse and visually evaluated for injury 13 to 21 days after herbicide application. Plant response ratings, summarized in Table E, are based on a 0 to 100 scale where 0 is no injury and 100 is complete control. A dash (−) response means no test result."}, "[4]": {"test_system": "tall mallow (Malva sylvestris)", "assay": "Test E pre-/postemergence/post directed", "set-up": "key: 0 is no effect; 100 is complete control", "settings": "PREEMERGENCE", "source_text": "as §1, §2"}, "[5]": {"test_system": "common groundsel (Senecio vulgaris)", "assay": "Test E pre-/postemergence/post directed", "set-up": "key: 0 is no effect; 100 is complete control", "source_text": "as §1, §2"}, "[6]": {"test_system": "common purslane (Portulaca oleracea)", "assay": "Test E pre-/postemergence/post directed", "set-up": "key: 0 is no effect; 100 is complete control", "source_text": "as §1, §2"}, "[7]": {"test_system": "large crabgrass (Digitaria sanguinalis)", "assay": "Test E pre-/postemergence/post directed", "set-up": "key: 0 is no effect; 100 is complete control", "settings": "PREEMERGENCE", "source_text": "as §1, §2"}, "[8]": {"test_system": "guineagrass (Panicum maximum)", "assay": "Test E pre-/postemergence/post directed", "set-up": "key: 0 is no effect; 100 is complete control", "source_text": "as §1, §2"}, "[9]": {"test_system": "goosegrass (Eleusine indica)", "assay": "Test E pre-/postemergence/post directed", "set-up": "key: 0 is no effect; 100 is complete control", "source_text": "as §1, §2"}, "[10]": {"test_system": "sourgrass (Trichachne insularis)", "assay": "Test E pre-/postemergence/post directed", "set-up": "key: 0 is no effect; 100 is complete control", "source_text": "as §1, §2"}, "[11]": {"test_system": "dallisgrass (Paspalum dilatatum)", "assay": "Test E pre-/postemergence/post directed", "set-up": "key: 0 is no effect; 100 is complete control", "source_text": "as §1, §2"}, "[12]": {"test_system": "bermudagrass (Cynodon dactylon)", "assay": "Test E pre-/postemergence/post directed", "set-up": "key: 0 is no effect; 100 is complete control", "settings": "PREEMERGENCE, Rate 125 g/ha", "source_text": "as §1, §2"}, "[13]": {"test_system": "velvetleaf (Abutilon theophrasti)", "assay": "Test C", "set-up": "key: 0 was no effect; 100 was complete control", "settings": "PREEMERGENCE"}, "[14]": {"test_system": "redroot pigweed (Amaranthus retroflexus)", "assay": "Test C", "set-up": "key: 0 was no effect; 100 was complete control", "settings": "PREEMERGENCE"}, "[15]": {"test_system": "johnsongrass (Sorghum halepense)", "assay": "Test C", "settings": "PREEMERGENCE"}, "[16]": {"test_system": "common ragweed (Ambrosia elatior)", "assay": "Test C", "set-up": "key: 0 was no effect; 100 was complete control", "settings": "PREEMERGENCE"}, "[17]": {"test_system": "fall panicum (Panicum dichotomiflorum)", "assay": "Test C", "set-up": "key: 0 was no effect; 100 was complete control", "settings": "PREEMERGENCE"}},
  "data": [
    {"smiles": "Cc1cnc(-n2ccc(C(F)(F)F)n2)nc1Cn1ccc(C(F)(F)F)n1", "note": "[Compound 52]", "values": [
      {"measurement": "Plant response rating, Barnyardgrass", "setting": "[1]; Rate 35 g/ha", "result": 30},
      {"measurement": "Plant response rating, Barnyardgrass", "setting": "[1]; Rate 70 g/ha", "result": 40},
      {"measurement": "Plant response rating, Barnyardgrass", "setting": "[1]; Rate 140 g/ha", "result": 40},
      {"measurement": "Plant response rating, Barley (winter)", "setting": "[2]; Rate 31 g/ha", "result": 50},
      {"measurement": "Plant response rating, Barley (winter)", "setting": "[2]; Rate 62 g/ha", "result": 50},
      {"measurement": "Plant response rating, Barley (winter)", "setting": "[2]; Rate 125 g/ha", "result": 60},
      {"measurement": "Plant response rating, Com. ragweed", "setting": "[3]", "result": 100},
      {"measurement": "Plant response rating, Tall Mallow", "setting": "[4]; Rate 32 g/ha", "result": 60},
      {"measurement": "Plant response rating, Tall Mallow", "setting": "[4]; Rate 64 g/ha", "result": 98},
      {"measurement": "Plant response rating, Tall Mallow", "setting": "[4]; Rate 125 g/ha", "result": 100},
      {"measurement": "Plant response rating, Com. groundsel", "setting": "[5]; POSTEMERGENCE, Rate 125 g/ha", "result": 100},
      {"measurement": "Plant response rating, Com. groundsel", "setting": "[5]; POSTEMERGENCE, Rate 250 g/ha", "result": 100},
      {"measurement": "Plant response rating, Com. groundsel", "setting": "[5]; PREEMERGENCE, Rate 125 g/ha", "result": 100},
      {"measurement": "Plant response rating, Com. purslane", "setting": "[6]; POSTEMERGENCE, Rate 125 g/ha", "result": 50},
      {"measurement": "Plant response rating, Com. purslane", "setting": "[6]; POSTEMERGENCE, Rate 250 g/ha", "result": 75},
      {"measurement": "Plant response rating, Com. purslane", "setting": "[6]; PREEMERGENCE, Rate 32 g/ha", "result": 100},
      {"measurement": "Plant response rating, Com. purslane", "setting": "[6]; PREEMERGENCE, Rate 64 g/ha", "result": 100},
      {"measurement": "Plant response rating, Com. purslane", "setting": "[6]; PREEMERGENCE, Rate 125 g/ha", "result": 100},
      {"measurement": "Plant response rating, Large crabgrass", "setting": "[7]; Rate 64 g/ha", "result": 100},
      {"measurement": "Plant response rating, Large crabgrass", "setting": "[7]; Rate 125 g/ha", "result": 100},
      {"measurement": "Plant response rating, Guineagrass", "setting": "[8]; POSTEMERGENCE, Rate 125 g/ha", "result": 80},
      {"measurement": "Plant response rating, Guineagrass", "setting": "[8]; POSTEMERGENCE, Rate 250 g/ha", "result": 85},
      {"measurement": "Plant response rating, Guineagrass", "setting": "[8]; PREEMERGENCE, Rate 32 g/ha", "result": 60},
      {"measurement": "Plant response rating, Guineagrass", "setting": "[8]; PREEMERGENCE, Rate 64 g/ha", "result": 80},
      {"measurement": "Plant response rating, Guineagrass", "setting": "[8]; PREEMERGENCE, Rate 125 g/ha", "result": 100},
      {"measurement": "Plant response rating, Goosegrass", "setting": "[9]; POSTEMERGENCE, Rate 125 g/ha", "result": 5},
      {"measurement": "Plant response rating, Goosegrass", "setting": "[9]; POSTEMERGENCE, Rate 250 g/ha", "result": 75},
      {"measurement": "Plant response rating, Goosegrass", "setting": "[9]; PREEMERGENCE, Rate 32 g/ha", "result": 20},
      {"measurement": "Plant response rating, Goosegrass", "setting": "[9]; PREEMERGENCE, Rate 64 g/ha", "result": 100},
      {"measurement": "Plant response rating, Goosegrass", "setting": "[9]; PREEMERGENCE, Rate 125 g/ha", "result": 100},
      {"measurement": "Plant response rating, Sourgrass", "setting": "[10]; POSTEMERGENCE, Rate 125 g/ha", "result": 10},
      {"measurement": "Plant response rating, Sourgrass", "setting": "[10]; POSTEMERGENCE, Rate 250 g/ha", "result": 50},
      {"measurement": "Plant response rating, Sourgrass", "setting": "[10]; PREEMERGENCE, Rate 32 g/ha", "result": 95},
      {"measurement": "Plant response rating, Sourgrass", "setting": "[10]; PREEMERGENCE, Rate 64 g/ha", "result": 100},
      {"measurement": "Plant response rating, Sourgrass", "setting": "[10]; PREEMERGENCE, Rate 125 g/ha", "result": 100},
      {"measurement": "Plant response rating, Dallisgrass", "setting": "[11]; POSTEMERGENCE, Rate 125 g/ha", "result": 5},
      {"measurement": "Plant response rating, Dallisgrass", "setting": "[11]; POSTEMERGENCE, Rate 250 g/ha", "result": 75},
      {"measurement": "Plant response rating, Dallisgrass", "setting": "[11]; PREEMERGENCE, Rate 32 g/ha", "result": 35},
      {"measurement": "Plant response rating, Dallisgrass", "setting": "[11]; PREEMERGENCE, Rate 64 g/ha", "result": 80},
      {"measurement": "Plant response rating, Dallisgrass", "setting": "[11]; PREEMERGENCE, Rate 125 g/ha", "result": 90},
      {"measurement": "Plant response rating, Bermudagrass", "setting": "[12]", "result": 100},
      {"measurement": "Plant response rating, Velvetleaf", "setting": "[13]; Rate 35 g/ha", "result": 70},
      {"measurement": "Plant response rating, Velvetleaf", "setting": "[13]; Rate 70 g/ha", "result": 100},
      {"measurement": "Plant response rating, Velvetleaf", "setting": "[13]; Rate 140 g/ha", "result": 100},
      {"measurement": "Plant response rating, Redroot pigweed", "setting": "[14]; Rate 35 g/ha", "result": 100},
      {"measurement": "Plant response rating, Redroot pigweed", "setting": "[14]; Rate 70 g/ha", "result": 100},
      {"measurement": "Plant response rating, Redroot pigweed", "setting": "[14]; Rate 140 g/ha", "result": 100},
      {"measurement": "Plant response rating, Johnsongrass", "setting": "[15]; Rate 35 g/ha", "result": 40},
      {"measurement": "Plant response rating, Johnsongrass", "setting": "[15]; Rate 70 g/ha", "result": 50},
      {"measurement": "Plant response rating, Johnsongrass", "setting": "[15]; Rate 140 g/ha", "result": 80},
      {"measurement": "Plant response rating, Common ragweed", "setting": "[16]; Rate 35 g/ha", "result": 40},
      {"measurement": "Plant response rating, Common ragweed", "setting": "[16]; Rate 70 g/ha", "result": 60},
      {"measurement": "Plant response rating, Common ragweed", "setting": "[16]; Rate 140 g/ha", "result": 100},
      {"measurement": "Plant response rating, Fall panicum", "setting": "[17]; Rate 35 g/ha", "result": 100},
      {"measurement": "Plant response rating, Fall panicum", "setting": "[17]; Rate 70 g/ha", "result": 100},
      {"measurement": "Plant response rating, Fall panicum", "setting": "[17]; Rate 140 g/ha", "result": 100}
    ]}
  ]
}
